From patent US8183271B2, “Tetrazole derivatives and their use for the treatment of cardiovascular diseases” (Bayer Intellectual Property GmbH, priority 2005, dated 2012)

Biological target: T1, Heme-free sGC (recombinant soluble guanylate cyclase) (Rattus norvegicus, UniProt P20595)
T1 construct: made in house
T1 sequence (P20595 1-619): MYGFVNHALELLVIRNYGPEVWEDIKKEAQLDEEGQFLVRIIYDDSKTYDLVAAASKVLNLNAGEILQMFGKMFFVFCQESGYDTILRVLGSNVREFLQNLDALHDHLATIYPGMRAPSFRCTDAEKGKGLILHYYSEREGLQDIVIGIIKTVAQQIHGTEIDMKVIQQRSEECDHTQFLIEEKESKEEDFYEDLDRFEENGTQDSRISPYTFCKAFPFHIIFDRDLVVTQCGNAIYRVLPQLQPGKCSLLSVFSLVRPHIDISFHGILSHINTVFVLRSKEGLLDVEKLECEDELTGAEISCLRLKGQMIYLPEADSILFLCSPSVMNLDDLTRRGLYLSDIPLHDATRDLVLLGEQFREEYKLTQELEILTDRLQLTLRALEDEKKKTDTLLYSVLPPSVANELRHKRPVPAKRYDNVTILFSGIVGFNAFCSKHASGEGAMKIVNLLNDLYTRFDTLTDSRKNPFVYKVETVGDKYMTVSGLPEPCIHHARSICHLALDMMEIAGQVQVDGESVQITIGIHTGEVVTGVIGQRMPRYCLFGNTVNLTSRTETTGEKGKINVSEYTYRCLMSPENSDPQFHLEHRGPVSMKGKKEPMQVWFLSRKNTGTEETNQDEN
T1 sequence (P19686 1-690 partner): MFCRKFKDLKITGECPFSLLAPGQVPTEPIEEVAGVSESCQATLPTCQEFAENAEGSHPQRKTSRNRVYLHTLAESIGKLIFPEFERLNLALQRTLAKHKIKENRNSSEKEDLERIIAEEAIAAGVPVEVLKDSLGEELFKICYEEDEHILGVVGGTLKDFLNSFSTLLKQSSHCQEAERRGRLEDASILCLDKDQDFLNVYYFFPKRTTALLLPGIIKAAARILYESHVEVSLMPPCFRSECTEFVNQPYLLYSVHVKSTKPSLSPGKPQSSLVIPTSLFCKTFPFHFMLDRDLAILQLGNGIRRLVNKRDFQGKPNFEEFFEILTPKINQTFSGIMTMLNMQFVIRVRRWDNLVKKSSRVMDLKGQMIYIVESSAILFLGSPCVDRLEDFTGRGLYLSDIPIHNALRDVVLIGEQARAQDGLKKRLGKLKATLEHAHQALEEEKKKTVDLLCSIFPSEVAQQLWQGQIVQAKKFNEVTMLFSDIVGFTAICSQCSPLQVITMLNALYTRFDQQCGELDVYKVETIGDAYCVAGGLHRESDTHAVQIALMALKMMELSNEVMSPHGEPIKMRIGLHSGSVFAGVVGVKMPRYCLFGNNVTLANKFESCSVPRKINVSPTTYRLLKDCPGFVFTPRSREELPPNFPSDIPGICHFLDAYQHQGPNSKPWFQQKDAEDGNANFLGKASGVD
Assay: Stimulation of recombinant soluble guanylate cyclase (sGC) in vitro, heme-free enzyme
Format: biochemical
Settings: 10 μM ODQ, 0.0 μM Example 6
Method: Investigations on the stimulation of recombinant soluble guanylate cyclase (sGC) by the compounds according to the invention with and without sodium nitroprusside, and with and without the heme-dependent sGC inhibitor 1H-1,2,4-oxadiazole-(4,3a)-quinoxalin-1-one (ODQ) are carried out by the method described in detail in the following reference: M. Hoenicka, E. M. Becker, H. Apeler, T. Sirichoke, H. Schroeder, R. Gerzer and J.-P. Stasch, “Purified soluble guanylyl cyclase expressed in a baculovirus/Sf9 system: Stimulation by YC-1, nitric oxide, and […]”, J. Mol. Med. 77 (1999), 14-23. The heme-free guanylate cyclase is obtained by adding Tween 20 to the sample buffer (0.5% in the final concentration).
(§1) The activation of sGC by a test substance is reported as n-fold stimulation of the basal activity.

Row | Stimulation (n-fold) Heme-free sGC with ODQ alone [n-fold] | Structure (SMILES)
1 | 1.2 | O=c1onc2cnc3ccccc3n12 [ODQ, 1H-1,2,4-oxadiazole-(4,3a)-quinoxalin-1-one, reference compound]

Biological target: T2, Heme-containing sGC (recombinant soluble guanylate cyclase) (Rattus norvegicus, UniProt P20595)
T2 construct: made in house
T2 sequence (P20595 1-619): T1 sequence (P20595 1-619)
T2 sequence (P19686 1-690 partner): T1 sequence (P19686 1-690 partner)
Assay: Stimulation of recombinant soluble guanylate cyclase (sGC) in vitro, heme-containing enzyme
Format: biochemical
Settings: 0.1 μM DEA/NO, 0.0 μM Example 6
Source text: Hoenicka, E. M. Becker, H. Apeler, T. Sirichoke, H. Schroeder, R. Gerzer and J.-P. Stasch, “Purified soluble guanylyl cyclase expressed in a baculovirus/Sf9 system: Stimulation by YC-1, nitric oxide, and carbon oxide”, J. Mol. Med. 77 (1999), 14-23. The heme-free guanylate cyclase is obtained by adding Tween 20 to the sample buffer (0.5% in the final concentration).
as §1

Row | Structure (SMILES) | Stimulation (n-fold) Heme-containing sGC by DEA/NO alone [n-fold]
2 | CCN(CC)[N+]([O-])=NO [DEA/NO, 2-(N,N-diethylamino)diazenolate 2-oxide, reference compound] | 64.1

Same assay, conditions: 10 μM ODQ, 0.0 μM Example 6

Row | Stimulation (n-fold) Heme-containing sGC with ODQ alone [n-fold] | Structure (SMILES)
3 | 2.4 | O=c1onc2cnc3ccccc3n12 [ODQ, 1H-1,2,4-oxadiazole-(4,3a)-quinoxalin-1-one, reference compound]

Test system: saphenous artery rings
Assay: Vasorelaxant effect in vitro (phenylephrine-contracted artery rings)
Format: cell-based, Rabbits
Settings: Oryctolagus cuniculus, rabbit saphenous artery rings, contraction induced by phenylephrine
Method: Rabbits are anesthetized and sacrificed by intravenous injection of thiopental sodium (about 50 mg/kg) and exsanguinated. The saphenous artery is removed and divided into rings 3 mm wide. The rings are mounted singly on in each case a pair of triangular hooks open at the end and made of 0.3 mm-thick special wire (Remanium®). Each ring is placed under an initial tension in 5 ml organ baths with Krebs-Henseleit solution which is at 37° C., is gassed with 95% O2/5% CO2 and has the following composition: NaCl 119 mM; KCl 4.8 mM; CaCl2×2H2O 1 mM; MgSO4×7H2O 1.4 mM; KH2PO4 1.2 mM; NaHCO3 25 mM; glucose 10 mM; bovine serum albumin 0.001%. The force of contraction is detected with Statham UC2 cells, amplified and digitized via A/D converters (DAS-1802 HC, Keithley Instruments, Munich) and recorded in parallel on chart recorders. Contractions are induced by addition of phenylephrine.
After several (generally 4) control cycles, the substance to be investigated is added in each further run in increasing dosage, and the height of the contraction achieved under the influence of the test substance is compared with the height of the contraction reached in the last preceding run. The concentration necessary to reduce the contraction reached in the preceding control by 50% is calculated from this (IC50). The standard application volume is 5 μl. The proportion of DMSO in the bath solution corresponds to 0.1%.

Row | Structure (SMILES) | IC50 [nM]
4 | CC(C)(C)c1ccc(COc2ccccc2/C=C/C(CCc2ccc(-c3nnn[nH]3)cc2)Cc2ccc(C(=O)O)cc2)c(Cl)c1 (single isomer, unassigned) [Example 3, 4-((3E)-4-{2-[(4-tert-Butyl-2-chlorobenzyl)oxy]phenyl}-2-{2-[4-(1H-tetrazol-5-yl)phenyl]ethyl}but-3-en-1-yl)benzoic acid] | 682
5 | O=C(O)c1ccc(CCC(/C=C/c2ccccc2OCCCCCc2ccccc2)Cc2ccc(-c3nnn[nH]3)cc2)cc1 (single isomer, unassigned) [Example 14, 4-{(4E)-5-{2-[(5-Phenylpentyl)oxy]phenyl}-3-[4-(1H-tetrazol-5-yl)benzyl]pent-4-en-1-yl}benzoic acid] | 1320
6 | CC(C)(C)c1ccc(COc2ccccc2/C=C/C(CCCCC(=O)O)Cc2ccc(-c3nnn[nH]3)cc2)cc1 (single isomer, unassigned) [Example 36, (7E)-8-{2-[(4-tert-Butylbenzyl)oxy]phenyl}-6-[4-(1H-tetrazol-5-yl)benzyl]oct-7-enoic acid] | 760
7 | COc1ccc(CCc2ccc(F)cc2/C=C/C(CCc2ccc(C(=O)O)cc2)Cc2ccc(-c3nnn[nH]3)cc2)cc1 (centres unmarked) [Example 18, 4-{(4E)-5-{5-Fluoro-2-[2-(4-methoxyphenyl)ethyl]phenyl}-3-[4-(1H-tetrazol-5-yl)benzyl]pent-4-en-1-yl}benzoic acid] | 890
8 | O=C(O)c1ccc(CCC(/C=C/c2ccccc2OCc2ccc(-c3ccc(C(F)(F)F)cc3)cc2)Cc2ccc(-c3nnn[nH]3)cc2)cc1 (centres unmarked) [Example 21, 4-[(4E)-3-[4-(1H-Tetrazol-5-yl)benzyl]-5-(2-{[4′-(trifluoromethyl)biphenyl-4-yl]-methoxy}phenyl)pent-4-en-1-yl]benzoic acid] | 372
9 | O=C(O)c1ccc(CCC(/C=C/c2ccccc2OCc2cc(C(F)(F)F)cc(C(F)(F)F)c2)CCCCc2nnn[nH]2)cc1 (centres unmarked) [Example 39] | 150

More lines, now with the values ahead:

Row | IC50 [nM] | Structure (SMILES)
10 | 1990 | CC(C)(C)c1ccc(COc2ccccc2/C=C/C(CCCCC(=O)O)CCc2ccc(-c3nnn[nH]3)cc2)cc1 (single isomer, unassigned) [Example 29, (7E)-8-{2-[(4-tert-Butylbenzyl)oxy]phenyl}-6-{2-[4-(1H-tetrazol-5-yl)phenyl]ethyl}oct-7-enoic acid]
11 | 5800 | COc1ccc(CCc2ccc(F)cc2/C=C\C(CCc2ccc(C(=O)O)cc2)Cc2ccc(-c3nnn[nH]3)cc2)cc1 (centres unmarked) [Example 17, 4-{(4Z)-5-{5-Fluoro-2-[2-(4-methoxyphenyl)ethyl]phenyl}-3-[4-(1H-tetrazol-5-yl)benzyl]pent-4-en-1-yl}benzoic acid]
12 | 567 | O=C(O)c1ccc(CCC(/C=C/c2ccccc2OCc2ccc(OC(F)(F)F)cc2)CCCCc2nnn[nH]2)cc1 (centres unmarked) [Example 38]

Same assay, conditions: rabbit saphenous artery rings, contraction induced by phenylephrine

Row | Structure (SMILES) | IC50 [nM]
13 | CC(C)(C)c1ccc(COc2ccccc2/C=C/C(CCc2ccc(C(=O)O)cc2)Cc2ccc(-c3nnn[nH]3)cc2)cc1 (single isomer, unassigned) [Example 23, 4-{(4E)-5-{2-[(4-tert-Butylbenzyl)oxy]phenyl}-3-[4-(1H-tetrazol-5-yl)benzyl]pent-4-en-1-yl}benzoic acid] | 3890
14 | CC(C)(C)c1ccc(COc2ccccc2/C=C/C(CCCCc2nnn[nH]2)CCc2ccc(C(=O)O)cc2)cc1 (single isomer, unassigned) [Example 26, 4-[3-((E)-2-{2-[(4-tert-Butylbenzyl)oxy]phenyl}vinyl)-7-(1H-tetrazol-5-yl)heptyl]benzoic acid] | 559

The remaining lines, values ahead:

Row | IC50 [nM] | Structure (SMILES)
15 | 2510 | CC(C)(C)c1ccc(COc2ccccc2/C=C/C(CCc2ccc(-c3nnn[nH]3)cc2)Cc2ccc(C(=O)O)cc2)cc1 (single isomer, unassigned) [Example 5, 4-((3E)-4-{2-[(4-tert-Butylbenzyl)oxy]phenyl}-2-{2-[4-(1H-tetrazol-5-yl)phenyl]ethyl}but-3-en-1-yl)benzoic acid]
16 | 102 | CC(C)(C)c1ccc(COc2ccccc2/C=C/C(CCc2ccc(C(=O)O)cc2)Cc2ccc(-c3nnn[nH]3)cc2)cc1 (single isomer, unassigned) [Example 24, 4-{(4E)-5-{2-[(4-tert-Butylbenzyl)oxy]phenyl}-3-[4-(1H-tetrazol-5-yl)benzyl]pent-4-en-1-yl}benzoic acid]
17 | 9.7 | CC(C)(C)c1ccc(COc2ccccc2/C=C/C(CCCCc2nnn[nH]2)CCc2ccc(C(=O)O)cc2)cc1 (single isomer, unassigned) [Example 27, 4-[3-((E)-2-f{2-[(4-tert-Butylbenzyl)oxy]phenyl}vinyl)-7-(1H-tetrazol-5-yl)heptyl]benzoic acid]
